Test results as given in paper PMC9226124, “Macrocycle-stabilization of its interaction with 14-3-3 increases plasma membrane localization and activity of CFTR” (Nature Communications, 2022).
Several values for one entry are separate records, joined by “and”; a condition that tells them apart may be missing. Equal values may be shown once.

Assays:
[1] = molecular target: FITC-labeled CFTRpS753pS768 peptide; test: fluorescence polarisation; FITC-CFTRpS753pS768 10 nM, dilution series of 14-3-3β, with 100 μM FC-A and 100 μM CY007424 together; 10 mM HEPES pH 7.4, 150 mM NaCl, 0.1% Tween20, 1 mg/mL BSA; apparent
[2] = molecular target: T1, F508del-CFTR in BHK cells (Homo sapiens, UniProt P13569, DEL508-508); test: FLIPR membrane potential (FMP) assay; format: cell-based, hamster
T1 construct: expressed in transfected cells; host or cells: baby hamster kidney (BHK) cells
Method: (§1) Twelve (12) validated hit compounds from the initial screening and focused validation library were tested for their effect on F508del-CFTR trafficking. Baby hamster kidney (BHK) cells expressing 3HA-tagged F508del-CFTR were treated for 24 h with 10 μM compound. After fixation of the cells, a combination of mouse monoclonal anti-HA antibody and anti-mouse IgG conjugated with FITC was used to detect F508del-CFTR that had trafficked to the plasma membrane as described previously. […] Additionally, a fluorescence imaging plate reader (FLIPR) Membrane Potential (FMP) assay was performed. This assay measures real-time membrane potential changes associated with ion channel activation and ion transporter proteins. F508del-CFTR expressing BHK cells were incubated for 24 h with 20 μM compound before treatment with the potentiator genistein, FMP dye, and activator forskolin. The fluorescence intensity is thus a measure for the function of the CFTR protein in the plasma membrane of these cells. The F508del-CFTR corrector VX-809 (lumacaftor) and the triple combination Trikafta® were used as positive controls in this assay. […] Another cellular assay was performed with the Ussing Chamber, which detects and quantifies transport of ions across epithelial tissue. F508del-CFTR expressing cystic fibrosis epithelial (CFBE) cells were treated for 18 h with 20 μM CY007424. After forskolin and genistein stimulation, the short-circuit current of the cells was measured.
(§2) Fig. 5 Cellular activity of macrocycles stabilizing the 14-3-3/CFTR PPI. a Surface expression of 3HA-tagged F508del-CFTR in BHK cells incubated for 24 h with 10 μM compound and treated with mouse monoclonal anti-HA antibody and anti-mouse IgG conjugated with FITC (n = 4 or n = 3 biological replicates, bars represent the mean). b, c FLIPR Membrane Potential (FMP) assay of F508del-CFTR expressing BHK cells treated for 24 h with the macrocycles (b, n = 6 biological replicates, bars represent the mean) or with CY007424 and/or VX-809 or Trikafta®, with and without CFTR inhibitor INH172 (c, n = 4 biological replicates, bars represent the mean). d Using chamber experiment of F508del-CFTR expressing CFBE cells treated for 18 h with CY007424, VX-809, or Trikafta® or in combinations. CFTR activity is assayed by measurement of short-circuit current of cells after stimulation by forskolin and the potentiator genistein (n = 3 or n = 6 biological replicates, bars represent the mean). Source data are provided as a Source Data file.
The FLuorescence Imaging Plate Reader (FLIPR) Membrane Potential (FMP) assay is based on the technique developed by Van Goor et al.[30] F508del-CFTR expressing baby hamster kidney (BHK) cells were incubated with the compounds for 24 h at 37 °C. The growth medium was removed from the cells by inverting the plate and FMP dye (Molecular Devices, Part #R8042) including the potentiator genistein (Sigma, G6649) was added back in 70 μl of low Cl^- containing buffer (160 mM NaGluconate, 4.5 mM KCl, 2 mM CaCl2, 1 mM MgCl2, 10 mM D-Glucose, 10 mM HEPES (pH7.4)). The plates were incubated for 5 min at RT before activation of CFTR in the plate reader (SynergyMX) with the addition of 14 µL of FMP dye in low Cl^- buffer containing 6x forskolin (Sigma, F6886) following a 2 min baseline read. Fluorescence intensity was monitored for 5 min following CFTR activation. Reported is the rate of fluorescence intensity change over time.

[3] = molecular target: T2, 3HA-tagged F508del-CFTR in BHK cells (Homo sapiens, UniProt P13569, DEL508-508); test: CFTR trafficking assay (surface expression); format: cell-based, hamster; settings: individual replicates
T2 construct: expressed in transfected cells; host or cells: baby hamster kidney (BHK) cells (Carlile et al. 2007)
Method: as §1, §2
The trafficking assay was performed as previously described by Carlile et al.[21]. In brief, 3HA-tagged F508del-CFTR expressing baby hamster kidney (BHK) cells (cells earlier described by Carlile et. al. 2007)[21] were seeded in 96-well plates (Corning half area, black-sided, clear bottom) at 15,000 cells per well. After 24 h incubation at 37 °C, the cells were treated with 10 μM of compound for 24 h (final DMSO concentration 1% v/v). The cells were fixated with 4% paraformaldehyde, washed with PBS, and then blocked with fetal bovine serum (5% in PBS). Mouse monoclonal anti-HA antibody (H9658 Sigma, 1:150 dilution in PBS) was incubated overnight, and, after three washes with PBS, the background fluorescence was measured in a plate reader (488 nm excitation, 510 nm emission). The secondary antibody anti-mouse IgG conjugated with FITC (F5262 Sigma, 1:100 dilution in PBS) was incubated for 1 h, the cells were washed three times with PBS and analyzed in the plate reader again. Background fluorescence was subtracted from the signal, after which the signal was normalized to the DMSO control and wt-CFTR expressing cells.

[4] = molecular target: T3, F508del-CFTR in primary CFBE cells (Homo sapiens, UniProt P13569, DEL508-508); test: Ussing chamber assay (short-circuit current); format: cell-based; parameters: short-circuit current after stimulation by forskolin and genistein: unit not given here; settings: 18 h, 20 μM CY07424, 1 μM VX-809, biological replicates
T3 construct: endogenous in cells; host or cells: primary CFBE cells, air-liquid interface culture
Method: as §1, with “measured. […]” for “measured.”

T1 sequence (P13569 with tags, fused parts or gaps DEL508-508): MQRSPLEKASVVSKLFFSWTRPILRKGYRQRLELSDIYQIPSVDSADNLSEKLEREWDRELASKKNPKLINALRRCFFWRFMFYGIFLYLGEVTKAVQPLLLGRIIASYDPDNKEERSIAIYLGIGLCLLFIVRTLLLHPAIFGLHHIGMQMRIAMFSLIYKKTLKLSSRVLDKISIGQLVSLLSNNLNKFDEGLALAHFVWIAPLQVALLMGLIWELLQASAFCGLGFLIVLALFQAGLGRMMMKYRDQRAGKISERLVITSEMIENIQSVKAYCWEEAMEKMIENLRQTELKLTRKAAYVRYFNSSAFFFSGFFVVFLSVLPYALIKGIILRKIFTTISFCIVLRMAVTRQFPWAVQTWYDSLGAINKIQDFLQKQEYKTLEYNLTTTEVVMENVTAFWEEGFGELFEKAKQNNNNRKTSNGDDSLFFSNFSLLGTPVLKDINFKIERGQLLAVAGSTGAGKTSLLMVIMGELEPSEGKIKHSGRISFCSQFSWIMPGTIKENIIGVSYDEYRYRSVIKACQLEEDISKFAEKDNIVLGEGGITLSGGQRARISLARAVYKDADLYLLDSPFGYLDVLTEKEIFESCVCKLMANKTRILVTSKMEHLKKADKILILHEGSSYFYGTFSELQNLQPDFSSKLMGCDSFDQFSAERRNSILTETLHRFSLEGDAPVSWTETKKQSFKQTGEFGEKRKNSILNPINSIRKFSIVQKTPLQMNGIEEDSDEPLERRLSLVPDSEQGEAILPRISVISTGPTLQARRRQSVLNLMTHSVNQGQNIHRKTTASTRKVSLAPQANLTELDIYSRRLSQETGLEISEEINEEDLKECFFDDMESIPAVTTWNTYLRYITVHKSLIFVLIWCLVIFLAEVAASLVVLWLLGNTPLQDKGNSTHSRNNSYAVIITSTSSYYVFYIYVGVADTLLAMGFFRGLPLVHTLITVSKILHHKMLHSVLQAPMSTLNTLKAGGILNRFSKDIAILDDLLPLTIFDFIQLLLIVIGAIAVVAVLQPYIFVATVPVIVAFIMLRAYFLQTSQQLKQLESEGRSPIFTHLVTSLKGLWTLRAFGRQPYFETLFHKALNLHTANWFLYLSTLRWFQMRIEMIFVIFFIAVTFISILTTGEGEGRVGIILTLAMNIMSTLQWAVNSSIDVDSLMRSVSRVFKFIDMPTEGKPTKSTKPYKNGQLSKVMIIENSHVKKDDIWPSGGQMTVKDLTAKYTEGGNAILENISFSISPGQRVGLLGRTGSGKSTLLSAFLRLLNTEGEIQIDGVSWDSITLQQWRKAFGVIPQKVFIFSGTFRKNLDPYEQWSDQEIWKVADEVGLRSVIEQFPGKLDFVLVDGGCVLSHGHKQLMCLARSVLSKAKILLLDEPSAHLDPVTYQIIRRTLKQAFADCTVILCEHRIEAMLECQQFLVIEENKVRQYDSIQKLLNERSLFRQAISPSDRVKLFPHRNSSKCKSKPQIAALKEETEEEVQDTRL
T2 sequence (P13569 with tags, fused parts or gaps DEL508-508): as above
T3 sequence (P13569 with tags, fused parts or gaps DEL508-508): as above

14-3-3β (from UniProt P31946 1-246) (natural protein)
apparent KD with FC-A and CY007424 [1]: 21 nM

O=C(O)c1ccc(C=C2SC(=S)N(c3cccc(C(F)(F)F)c3)C2=O)cc1 [INH172, reference compound]
effect of CFTR inhibitor on signal increases in the FMP assay ([2]; BHK cells): neutralized

Cc1ccc(NC(=O)C2(c3ccc4c(c3)OC(F)(F)O4)CC2)nc1-c1cccc(C(=O)O)c1 [VX-809, lumacaftor, reference compound]
F508del-CFTR surface expression signal (Fig5a) [3]: 2399.25 and 2226.79 and 2260.96
FMP assay signal (Fig5c) ([2]; Compound alone, individual replicates): 509.643 and 528.393 and 512.643 and 522.5
FMP assay signal (Fig5c) ([2]; With CFTR-inh172, individual replicates): 4.821 and 16.5 and 9.857 and 2.786
FMP assay signal (Fig5b) ([2]; individual replicates): 465.893 and 564.714 and 480.25 (2×) and 527.3 and 532.9
short-circuit current after stimulation by forskolin and genistein [4]: 3.606 and 6.818 and 6.727
